From article PMC10482350, “Nucleoside diphosphate kinases 1 and 2 regulate a protective liver response to a high-fat diet” (Science Advances, 2023)
Each block holds one molecule with its values, some of them ahead of it.

Columns and labels:
[1] = target: T1, NME1 (Mus musculus, UniProt P15532); test: histidine phosphorylation (native gel, native MS); release of NME1 from CoA beads; type: biochemical; parameters: full-length recombinant
[2] = target: T2, NME2 (Mus musculus, UniProt Q01768); test: CoA-agarose pull-down of GST-NME2 from bacterial extract; type: cell-based
T2 construct: full-length, GST-tagged

[3] = target: T1, NME1; test: ITC; crystal structure ([…] Å), native MS, nanoDSF; type: binding; parameters: full-length, His-tag cleaved by TEV
[4] = target: T1, NME1; test: dephosphorylation of phosphohistidine NME1 (immunoblot); type: biochemical; parameters: full-length recombinant
[5] = target: the molecule itself; test: native MS; recombinant purified NME1 without ligand or incubated with CoA, AcCoA, SucCoA, dephospho-CoA or ATP; charge states +22 and +21 of the hexamer; methods in the Supplementary Materials

T2 sequence (Q01768 whole entry): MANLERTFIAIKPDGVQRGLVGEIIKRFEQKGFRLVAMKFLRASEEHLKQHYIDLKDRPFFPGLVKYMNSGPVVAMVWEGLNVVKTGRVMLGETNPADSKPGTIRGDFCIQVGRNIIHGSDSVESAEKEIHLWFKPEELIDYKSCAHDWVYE

Molecule: Nc1ncnc2c1ncn2[C@@H]1O[C@H](COP(=O)(O)OP(=O)(O)OP(=O)(O)O)[C@@H](O)[C@H]1O [ATP]
histidine phosphorylation (native gel, native MS); release of NME1 from CoA bead [1]: recombinant murine NME1 purified from bacteria could be phosphorylated by ATP and subsequently dephosphorylated by ADP or guanosine diphosphate (GDP)

Kd [3]: ~18 µM
Molecule: CC(C)(COP(=O)(O)OP(=O)(O)OC[C@H]1O[C@@H](n2cnc3c(N)ncnc32)[C@H](O)[C@@H]1OP(=O)(O)O)[C@@H](O)C(=O)NCCC(=O)NCCS [CoA]
CoA-agarose pull-down of GST-NME2 from bacterial extract [2]: NME2 exhibits an ATP-sensitive CoA binding activity comparable to that of NME1 (fig. S11A)

Molecule: Nc1nc2c(ncn2[C@@H]2O[C@H](CO[P@](=O)(O)OP(=O)(O)O)[C@@H](O)[C@H]2O)c(=O)[nH]1 [GDP]
dephosphorylation of phosphohistidine NME1 (immunoblot) [4]: phosphorylated by ATP and subsequently dephosphorylated by ADP or guanosine diphosphate (GDP)

B1: nucleoside diphosphate kinase 1 (NME1), recombinant murine (enzyme, mouse, UniProt P15532 1-152, looked up)
chain: MANSERTFIAIKPDGVQRGLVGEIIKRFEQKGFRLVGLKFLQASEDLLKEHYTDLKDRPFFTGLVKYMHSGPVVAMVWEGLNVVKTGRVMLGETNPADSKPGTIRGDFCIQVGRNIIHGSDSVKSAEKEISLWFQPEELVEYKSCAQNWIYE
notes: also called NDPK 1; WT NME1; source: E. coli BL21-Gold(D3), purified (HisTrap, TEV cleavage, Superdex 200 SEC); not shown: His6, N-terminal, cleaved
stoichiometry N [5]: 6
